Measured values from ChEMBL document CHEMBL1152339, “Use of the in vivo hollow fiber assay in natural products anticancer drug discovery” (J Nat Prod, 2009).

Legend:
Format in all cases: functional
MCF7 [1] = test: Growth inhibition of human MCF7 cells xenografted in NCr nu/nu mouse at 25 to 100 mg/kg, ip once daily administered from day 3 to 6 after implantation measured on day 7 by MTT-based hollow-fiber test; conditions: dose mg/kg 3-6; route intraperitoneal
MCF7 [2] = test: Growth inhibition of human MCF7 cells xenografted in ip dosed NCr nu/nu mouse administered once daily from day 3 to 6 after implantation measured on day 7 by MTT-based hollow-fiber test
SK-MEL-2 [3] = test: Growth inhibition of human SK-MEL-2 cells xenografted in NCr nu/nu mouse at 25 to 100 mg/kg, sc once daily administered from day 3 to 6 after implantation measured on day 7 by MTT-based hollow-fiber test; conditions: dose mg/kg 3-6; route subcutaneous
SK-MEL-2 [4] = test: Growth inhibition of human SK-MEL-2 cells xenografted in NCr nu/nu mouse at 25 to 100 mg/kg, ip once daily administered from day 3 to 6 after implantation measured on day 7 by MTT-based hollow-fiber test; conditions: dose mg/kg 3-6; route intraperitoneal
SW626 [5] = test: Growth inhibition of human SW626 cells xenografted in NCr nu/nu mouse at 25 to 100 mg/kg, ip once daily administered from day 3 to 6 after implantation measured on day 7 by MTT-based hollow-fiber test; conditions: dose mg/kg 3-6; route intraperitoneal
KB [6] = test: Growth inhibition of human KB cells xenografted in NCr nu/nu mouse at 25 to 100 mg/kg, sc once daily administered from day 3 to 6 after implantation measured on day 7 by MTT-based hollow-fiber test; conditions: route subcutaneous
LNCaP [7] = test: Growth inhibition of human LNCAP cells xenografted in NCr nu/nu mouse at 25 to 100 mg/kg, sc once daily administered from day 3 to 6 after implantation measured on day 7 by MTT-based hollow-fiber test; conditions: route subcutaneous
KB [8] = test: Growth inhibition of human KB cells xenografted in NCr nu/nu mouse at 25 to 100 mg/kg, ip once daily administered from day 3 to 6 after implantation measured on day 7 by MTT-based hollow-fiber test; conditions: route intraperitoneal
SW626 [9] = test: Growth inhibition of human SW626 cells xenografted in ip dosed NCr nu/nu mouse administered once daily from day 3 to 6 after implantation measured on day 7 by MTT-based hollow-fiber test
MCF7 [10] = test: Growth inhibition of human MCF7 cells xenografted in NCr nu/nu mouse at 25 to 100 mg/kg, sc once daily administered from day 3 to 6 after implantation measured on day 7 by MTT-based hollow-fiber test; conditions: dose mg/kg 3-6; route subcutaneous
LNCaP [11] = test: Growth inhibition of human LNCAP cells xenografted in ip dosed NCr nu/nu mouse administered once daily from day 3 to 6 after implantation measured on day 7 by MTT-based hollow-fiber test
SW626 [12] = test: Growth inhibition of human SW626 cells xenografted in NCr nu/nu mouse at 25 to 100 mg/kg, sc once daily administered from day 3 to 6 after implantation measured on day 7 by MTT-based hollow-fiber test; conditions: dose mg/kg 3-6; route subcutaneous
SK-MEL-2 [13] = test: Growth inhibition of human SK-MEL-2 cells xenografted in ip dosed NCr nu/nu mouse administered once daily from day 3 to 6 after implantation measured on day 7 by MTT-based hollow-fiber test
LNCaP [14] = test: Growth inhibition of human LNCAP cells xenografted in NCr nu/nu mouse at 25 to 100 mg/kg, ip once daily administered from day 3 to 6 after implantation measured on day 7 by MTT-based hollow-fiber test; conditions: route intraperitoneal
MCF7 [15] = test: Growth inhibition of human MCF7 cells xenografted in NCr nu/nu mouse at 6.25 to 50 mg/kg, ip once daily administered from day 3 to 6 after implantation measured on day 7 by MTT-based hollow-fiber test; conditions: dose mg/kg 3-6; route intraperitoneal
MCF7 [16] = test: Growth inhibition of human MCF7 cells xenografted in NCr nu/nu mouse at 6.25 to 50 mg/kg, sc once daily administered from day 3 to 6 after implantation measured on day 7 by MTT-based hollow-fiber test; conditions: dose mg/kg 3-6; route subcutaneous
Col2 [17] = test: Growth inhibition of human Col2 cells xenografted in ip dosed NCr nu/nu mouse administered once daily from day 3 to 6 after implantation measured on day 7 by MTT-based hollow-fiber test
LNCaP [18] = test: Growth inhibition of human LNCAP cells xenografted in NCr nu/nu mouse at 0.195 to 1.56 mg/kg, sc once daily administered from day 3 to 6 after implantation measured on day 7 by MTT-based hollow-fiber test; conditions: route subcutaneous
Col2 [19] = test: Growth inhibition of human Col2 cells xenografted in NCr nu/nu mouse at 0.195 to 1.56 mg/kg, sc once daily administered from day 3 to 6 after implantation measured on day 7 by MTT-based hollow-fiber test; conditions: route subcutaneous
Col2 [20] = test: Growth inhibition of human Col2 cells xenografted in NCr nu/nu mouse at 0.195 to 1.56 mg/kg, ip once daily administered from day 3 to 6 after implantation measured on day 7 by MTT-based hollow-fiber test; conditions: route intraperitoneal
LNCaP [21] = test: Growth inhibition of human LNCAP cells xenografted in NCr nu/nu mouse at 0.195 to 1.56 mg/kg, ip once daily administered from day 3 to 6 after implantation measured on day 7 by MTT-based hollow-fiber test; conditions: route intraperitoneal
KB [22] = test: Growth inhibition of human KB cells xenografted in NCr nu/nu mouse at 0.195 to 1.56 mg/kg, sc once daily administered from day 3 to 6 after implantation measured on day 7 by MTT-based hollow-fiber test; conditions: route subcutaneous
KB [23] = test: Growth inhibition of human KB cells xenografted in NCr nu/nu mouse at 0.195 to 1.56 mg/kg, ip once daily administered from day 3 to 6 after implantation measured on day 7 by MTT-based hollow-fiber test; conditions: route intraperitoneal

| Compound | growth inhibition (GI) (KB [6]) [%] | growth inhibition (GI) (LNCaP [7]) [%] | growth inhibition (GI) (KB [8]) [%] | ED50 (LNCaP [11]) [µM] | growth inhibition (GI) (LNCaP [14]) [%] | ED50 (Col2 [17]) [µM] | growth inhibition (GI) (LNCaP [18]) [%] | growth inhibition (GI) (Col2 [19]) [%] | growth inhibition (GI) (Col2 [20]) [%] | growth inhibition (GI) (LNCaP [21]) [%] | growth inhibition (GI) (KB [22]) [%] | growth inhibition (GI) (KB [23]) [%] | further results |
| --- | --- | --- | --- | --- | --- | --- | --- | --- | --- | --- | --- | --- | --- |
| CO[C@@]12CC[C@@]3(C)[C@@](CC[C@@H]4[C@@]5(C)CCC[C@]43OC5=O)(C1)C(=O)C2=O | 6 | 0 | 21 | 1.2 | 50 | – | – | – | – | – | – | – | growth inhibition (GI) (MCF7 [1]): 34%; ED50 (MCF7 [2]): 0.87 µM; growth inhibition (GI) (SK-MEL-2 [3]): 11%; growth inhibition (GI) (SK-MEL-2 [4]): 15%; growth inhibition (GI) (SW626 [5]): 0%; ED50 (SW626 [9]): 0.58 µM; growth inhibition (GI) (MCF7 [10]): 0%; growth inhibition (GI) (SW626 [12]): 16%; ED50 (SK-MEL-2 [13]): 1.2 µM |
| C[C@]12CC[C@]3(O)C[C@@]1(CC[C@@H]1[C@@]4(C)CCC[C@]12OC4=O)C(=O)C3=O | 0 | 0 | 0 | 4.5 | 0 | – | – | – | – | – | – | – | – |
| CCCCCCCCCCCCC[C@@H]1C[C@@H](O)C[C@]2(CCC3(C=CC(=O)C=C3)O2)O1 [ACULEATIN A] | – | – | – | – | – | – | – | – | – | – | – | – | growth inhibition (GI) (MCF7 [15]): 10%; growth inhibition (GI) (MCF7 [16]): 0% |
| CC(=O)O[C@@H]1O[C@@H]([C@H]2c3cccc(O)c3C(=O)c3c(O)cc(C)cc32)[C@H](O)[C@@H](O)[C@H]1O [ALVARADOIN E] | – | – | – | 0.14 | – | 0.23 | 10 | 6 | 31 | 60 | 5 | 40 | – |
| CC(=O)O[C@H]1O[C@H]([C@@H]2c3cccc(O)c3C(=O)c3c(O)cc(C)cc32)[C@H](O)[C@@H](O)[C@H]1O [ALVARADOIN F] | – | – | – | 0.12 | – | 0.23 | 3 | 1 | 21 | 59 | 2 | 32 | – |
